From patent US12239643B2, “Therapeutic agent for inflammatory diseases, autoimmune diseases, fibrotic diseases, and cancer diseases” (MEIJI SEIKA PHARMA CO., LTD., priority 2018, dated 2025)

Each compound was assayed on PDE4 (assay: Evaluation of PDE4 inhibitory activity, scintillation proximity assay). Details: scintillation proximity assay; class symbols of Evaluation 1; read-out: PDE4 Inhibitory Activity (concentration for the inhibition rate of 50%, IC50), Evaluation 1.
Type: biochemical
Experimental: The BDE4 inhibitory activity was measured using scintillation proximity assay (SPA) as follows. First, a test compound dissolved in dimethyl sulfoxide was diluted 1:10 in reaction buffer solution which contained 50 mM of Tris-HCl with pH 7.4, 8.3 mM of MgCl2, 1.7 mM of EGTA, and 3 mg/mL of bovine serum albumin (BSA). Then, 10 μL of the diluted solution was added in a 96-well assay plate. Moreover, 50 μL of PDE4 (enzyme preparation) diluted 1:375 in the reaction buffer solution was added, and then 40 μL of [2,8-^3H]-adenosine-3′,5′-cyclic phosphate triethylammonium salt diluted 1:1000 in the reaction buffer solution was added. The mixture was allowed to stand at room temperature for 120 minutes. Thereafter, […] of RNA binding YSi-SPA beads suspension containing ZnSO4 was added and the mixture was allowed to stand at room temperature for 15 minutes, followed by adsorption of the enzyme reaction product to the beads. After that, the radioactivity was measured using a liquid scintillation counter for a 96-well plate. The mixture without the enzyme preparation added but only the reaction buffer solution added is a blank, and the mixture with the enzyme preparation added and only dimethyl sulfoxide added instead of the test compound is a control.
In addition, the PDE4 inhibitory activity (concentration that inhibits PDE4 activity by 50%=concentration for the inhibition rate of 50% (IC50)) of the test compound was calculated from the inhibition curves based on the inhibition rates for various concentrations of the test compound.

SMILES | IC50
N#CCOc1ccc(-c2nccs2)c2oc(N3CC4CCC(C3)N4)nc12 [Example 82, 2-((2-(3,8-Diazabicyclo[3.2.1]octan-3-yl)-7-(thiazol-2-yl)benzo[d]oxazol-4-yl)oxy)acetonitrile] | < 100 nM
COCC(O)COc1ccc(-c2nccs2)c2oc(N3CC4CCC(C3)N4)nc12 (centres unmarked) [Example 83, 1-((2-(3,8-Diazabicyclo[3.2.1]octan-3-yl)-7-(thiazol-2-yl)benzo[d]oxazol-4-yl)oxy)-3-methoxypropan-2-ol] | < 100 nM
c1csc(-c2ccc(OC3CCOC3)c3nc(N4CC5CCC(C4)N5)oc23)n1 (centres unmarked) [Example 84, 2-(3,8-Diazabicyclo[3.2.1]octan-3-yl)-4-((tetrahydrofuran-3-yl)oxy)-7-(thiazol-2-yl)benzo[d]oxazole] | < 100 nM
c1csc(-c2ccc(-c3nccs3)c3oc(N4CC5CCC(C4)N5)nc23)n1 [Example 85, 2-(3,8-Diazabicyclo[3.2.1]octan-3-yl)-4,7-di(thiazol-2-yl)benzo[d]oxazole] | < 100 nM
CCOC(=O)c1cc(-c2nccs2)c2oc(N3CC4CCC(C3)N4)nc2c1 [Example 86, Ethyl 2-(3,8-diazabicyclo[3.2.1]octan-3-yl)-7-(thiazol-2-yl)benzo[d]oxazole-5-carboxylate] | < 100 nM
CCOC(=O)c1cc(-c2nccs2)c2oc(N3CC4CC(C3)N4)nc2c1 [Example 87, Ethyl 2-(3,6-diazabicyclo[3.1.1]heptan-3-yl)-7-(thiazol-2-yl)benzo[d]oxazole-5-carboxylate] | < 100 nM
CCOC(=O)c1cc(-c2nccs2)c2oc(N3CC4COCC(C3)N4)nc2c1 [Example 88, Ethyl 2-(3-oxa-7,9-diazabicyclo[3.3.1]nonan-7-yl)-7-(thiazol-2-yl)benzo[d]oxazole-5-carboxylate] | 100 to 1000 nM
CCOC(=O)c1cc(-c2nccs2)c2oc(N3CC4CCCC(C3)N4)nc2c1 [Example 89, Ethyl 2-(3,9-diazabicyclo[3.3.1]nonan-3-yl)-7-(thiazol-2-yl)benzo[d]oxazole-5-carboxylate] | < 100 nM
CCOC(=O)c1cc(-n2cccn2)c2oc(N3CC4CCC(C3)N4)nc2c1 [Example 90, Ethyl 2-(3,8-diazabicyclo[3.2.1]octan-3-yl)-7-(1H-pyrazol-1-yl)benzo[d]oxazole-5-carboxylate] | 100 to 1000 nM
CCOC(=O)c1cc(-n2cccn2)c2oc(N3CC4CC(C3)N4)nc2c1 [Example 91, Ethyl 2-(3,6-diazabicyclo[3.1.1]heptan-3-yl)-7-(1H-pyrazol-1-yl)benzo[d]oxazole-5-carboxylate] | > 1000 nM
CCOC(=O)c1cc(-n2cccn2)c2oc(N3CC4COCC(C3)N4)nc2c1 [Example 92, Ethyl 2-(3-oxa-7,9-diazabicyclo[3.3.1]nonan-7-yl)-7-(1H-pyrazol-1-yl)benzo[d]oxazole-5-carboxylate] | > 1000 nM
CCOC(=O)c1cc(-n2cccn2)c2oc(N3CC4CCCC(C3)N4)nc2c1 [Example 93, Ethyl 2-(3,9-diazabicyclo[3.3.1]nonan-3-yl)-7-(1H-pyrazol-1-yl)benzo[d]oxazole-5-carboxylate] | 100 to 1000 nM
CN(C)C(=O)c1cc(-c2nccs2)c2oc(N3CC4CCC(C3)N4)nc2c1 [Example 94, 2-(3,8-Diazabicyclo[3.2.1]octan-3-yl)-N,N-dimethyl-7-(thiazol-2-yl)benzo[d]oxazole-5-carboxamide] | < 100 nM
O=C(c1cc(-c2nccs2)c2oc(N3CC4CCC(C3)N4)nc2c1)N1CCOCC1 [Example 95, (2-(3,8-Diazabicyclo[3.2.1]octan-3-yl)-7-(thiazol-2-yl)benzo[d]oxazol-5-yl) (morpholino)methanone] | < 100 nM
O=C(c1cc(-c2nccs2)c2oc(N3CC4CCC(C3)N4)nc2c1)N1CCCCC1 [Example 96, (2-(3,8-Diazabicyclo[3.2.1]octan-3-yl)-7-(thiazol-2-yl)benzo[d]oxazol-5-yl)(piperidin-1-yl)methanone] | < 100 nM
O=C(c1cc(-c2nccs2)c2oc(N3CC4CCC(C3)N4)nc2c1)N1CCC1 [Example 97, (2-(3,8-Diazabicyclo[3.2.1]octan-3-yl)-7-(thiazol-2-yl)benzo[d]oxazol-5-yl)(azetidin-1-yl)methanone] | < 100 nM
O=C(NCc1ccccc1)c1cc(-c2nccs2)c2oc(N3CC4CCC(C3)N4)nc2c1 [Example 98, N-benzyl-2-(3,8-diazabicyclo[3.2.1]octan-3-yl)-7-(thiazol-2-yl)benzo[d]oxazole-5-carboxamide] | < 100 nM
NC(=O)c1cc(-c2nccs2)c2oc(N3CC4CCC(C3)N4)nc2c1 [Example 99, 2-(3,8-Diazabicyclo[3.2.1]octan-3-yl)-7-(thiazol-2-yl)benzo[d]oxazole-5-carboxamide] | < 100 nM

SMILES | IC50
CNC(=O)c1cc(-c2nccs2)c2oc(N3CC4CCC(C3)N4)nc2c1 [Example 100, 2-(3,8-Diazabicyclo[3.2.1]octan-3-yl)-N-methyl-7-(thiazol-2-yl)benzo[d]oxazole-5-carboxamide] | < 100 nM
CC(=O)N(C)c1cc(-c2nccs2)c2oc(N3CC4CCC(C3)N4)nc2c1 [Example 101, N-(2-(3,8-diazabicyclo[3.2.1]octan-3-yl)-7-(thiazol-2-yl)benzo[d]oxazol-5-yl)-N-methylacetamide] | < 100 nM
COC(C)(c1cc(-c2nccs2)c2oc(N3CC4CCC(C3)N4)nc2c1)C(F)(F)F (centres unmarked) [Example 102, 2-(3,8-Diazabicyclo[3.2.1]octan-3-yl)-7-(thiazol-2-yl)-5-(1,1,1-trifluoro-2-methoxypropan-2-yl)benzo[d]oxazole] | < 100 nM
COC(C)(c1cc(-c2nccs2)c2oc(N3CC4CC(C3)N4)nc2c1)C(F)(F)F (centres unmarked) [Example 103, 2-(3,6-Diazabicyclo[3.1.1]heptan-3-yl)-7-(thiazol-2-yl)-5-(1,1,1-trifluoro-2-methoxypropan-2-yl)benzo[d]oxazole] | < 100 nM
COC(c1cc(-c2nccs2)c2oc(N3CC4CCC(C3)N4)nc2c1)C(F)F (centres unmarked) [Example 105, 2-(3,8-Diazabicyclo[3.2.1]octan-3-yl)-5-(2,2-difluoro-1-methoxyethyl)-7-(thiazol-2-yl)benzo[d]oxazole] | < 100 nM
CC(O)c1cc(-c2nccs2)c2oc(N3CC4CCC(C3)N4)nc2c1 (centres unmarked) [Example 106, 1-(2-(3,8-Diazabicyclo[3.2.1]octan-3-yl)-7-(thiazol-2-yl)benzo[d]oxazol-5-yl)ethan-1-ol] | < 100 nM
CC(O)c1cc(-c2nccs2)c2oc(N3CC4CC(C3)N4)nc2c1 (centres unmarked) [Example 107, 1-(2-(3,6-Diazabicyclo[3.1.1]heptan-3-yl)-7-(thiazol-2-yl)benzo[d]oxazol-5-yl)ethan-1-ol] | 100 to 1000 nM
CC(=O)c1cc(-c2nccs2)c2oc(N3CC4CCC(C3)N4)nc2c1 [Example 108, 1-(2-(3,8-Diazabicyclo[3.2.1]octan-3-yl)-7-(thiazol-2-yl)benzo[d]oxazol-5-yl)ethan-1-one] | < 100 nM
CC(=O)c1cc(-c2nccs2)c2oc(N3CC4CC(C3)N4)nc2c1 [Example 109, 1-(2-(3,6-Diazabicyclo[3.1.1]heptan-3-yl)-7-(thiazol-2-yl)benzo[d]oxazol-5-yl)ethan-1-one] | < 100 nM
COC(C)c1cc(-c2nccs2)c2oc(N3CC4CCC(C3)N4)nc2c1 (centres unmarked) [Example 110, 2-(3,8-Diazabicyclo[3.2.1]octan-3-yl)-5-(1-methoxyethyl)-7-(thiazol-2-yl)benzo[d]oxazole] | < 100 nM
COC(C)c1cc(-c2nccs2)c2oc(N3CC4CC(C3)N4)nc2c1 (centres unmarked) [Example 111, 2-(3,6-Diazabicyclo[3.1.1]heptan-3-yl)-5-(1-methoxyethyl)-7-(thiazol-2-yl)benzo[d]oxazole] | < 100 nM
CCOC(=O)c1ccc(-c2nccs2)c2oc(N3CC4CCC(C3)N4)nc12 [Example 112, Ethyl 2-(3,8-diazabicyclo[3.2.1]octan-3-yl)-7-(thiazol-2-yl)benzo[d]oxazole-4-carboxylate] | < 100 nM
CCOC(=O)c1ccc(-c2nccs2)c2oc(N3CC4CC(C3)N4)nc12 [Example 113, ethyl 2-(3,6-diazabicyclo[3.1.1]heptan-3-yl)-7-(thiazol-2-yl)benzo[d]oxazole-4-carboxylate] | < 100 nM
CCOC(=O)c1ccc(-c2nccs2)c2oc(N3CC4CCCC(C3)N4)nc12 [Example 114, Ethyl 2-(3,9-diazabicyclo[3.3.1]nonan-3-yl)-7-(thiazol-2-yl)benzo[d]oxazole-4-carboxylate] | < 100 nM
CN(C)C(=O)c1ccc(-c2nccs2)c2oc(N3CC4CCC(C3)N4)nc12 [Example 115, 2-(3,8-Diazabicyclo[3.2.1]octan-3-yl)-N,N-dimethyl-7-(thiazol-2-yl)benzo[d]oxazole-4-carboxamide] | < 100 nM
O=C(c1ccc(-c2nccs2)c2oc(N3CC4CCC(C3)N4)nc12)N1CCOCC1 [Example 116, (2-(3,8-Diazabicyclo[3.2.1]octan-3-yl)-7-(thiazol-2-yl)benzo[d]oxazol-4-yl) (morpholino)methanone] | < 100 nM
O=C(c1ccc(-c2nccs2)c2oc(N3CC4CCC(C3)N4)nc12)N1CCCCC1 [Example 117, (2-(3,8-Diazabicyclo[3.2.1]octan-3-yl)-7-(thiazol-2-yl)benzo[d]oxazol-4-yl)(piperidin-1-yl)methanone] | < 100 nM
